This note sets out measurements from patent US12024544B2, “CCN3 and CCN3 peptides and analogs thereof for therapeutic use” (Rosalind Franklin University of Medicine & Science, priority 2010, dated 2024).

Common to all, as to type: cell-based
The subject of one data set is collagen type I promoter. In words: collagen type I promoter (COL 1a2 promoter-luciferase) assay in TGF-beta stimulated mesangial cells. On the procedure:
In a second assay, the ability of the peptide to block the stimulation of collagen type I promoter by TGF-beta was tested. Collagen type I upregulation is a characteristic feature of fibrosis and is often used as an end point determination. TGF-beta is a well-established pro-fibrotic factor or cytokine that mesangial cells and other cells in the fibrotic response respond to by upregulating collagen and other matrix molecule production and accumulation. Several new anti-fibrotic therapies are under development that target the activity of TGF-beta. For the assays used in connection with the present invention, collagen promoter activity was measured as a rapid and early indicator of collagen-related fibrotic activity. The cells in culture were either unstimulated or stimulated by TGF-beta, both in the presence and absence of the selected peptides. If the peptides have inhibitory activity, the promoter activity under TGF-beta stimulation would be reduced to some value approaching the control, non-TGF-beta treated cells. The collagen promoter assay is based on the transfection of mesangial cells with a COL 1a2 promoter linked to luciferase. Therefore, when the promoter is stimulated it can be measured as luciferase units (Riser et al, CCN3 is a negative regulator of CCN2 and a novel endogenous inhibitor of the fibrotic pathway in an in vitro model of renal disease, American J Pathology, 174, 5, 2009). The level of collagen promoter activation (in arbitrary units), is based on a transfection efficiency control (CMV promoter activation).

The subject of data set [1] is human chronic myelogenous leukemia cells (K562). The following applies: 10 nM. On the procedure: Another potential use of the methods described in the invention is for the treatment of cancers. […] CCNp generated to mimic the effects of the function of CCN3 to prevent, reduce, stop or reverse progression of fibrosis/scarring may also serve to limit cancer growth. […] In untreated cells (Control) and those pre-incubated with quantities (approximately 10 nM) of a commercial recombinant CCN3 (rCCN3c), or full length CCN3 made in our laboratory, represented by several preparations rCCN3 8 (SEQ ID NO: 44), rCCN3 9 (SEQ ID NO: 44), rCCN3 10 (SEQ ID NO: 44), rCCN3 11 (SEQ ID NO: 44), or the peptides CCN p37 or CCN p38 were allowed to grow, then proliferation measured by the CellTiter-Glo® Luminescent Cell Viability Assay Control untreated cells, or cells (McCallum, L et al, CCN3: a key growth regulator in Chronic Myeloid Leukaemia, J Cell Commun Signal. 2009 June; 3(2): 115-124.). The latter is a homogeneous method of determining the number of viable cells in culture based on quantitation of the ATP present, an indicator of metabolically active cells. […] In comparison, CCNp37 produces 15-20% inhibition and CCNp38 approximately 40% inhibition of cell growth. Thus the activity was greater than the full-length CCN3.

For a further data set, the system named is MMP-1. The experiment in a line: MMP-1 production by human skin fibroblasts. The following applies: for reduction in PDGF stimulated MMP-1 production: 100 nM, FIG. 27. The text has this: (§1) To test this we used a cell culture model of skin healing/scarring, which employed the use of primary human skin fibroblasts derived from foreskins collected post circumcision. These have been used extensively in the past to grown in culture and treated with agents that are known to drive wound healing and or scarring. We were also interested in a rare form of skin fibrosis/scarring that can lead to systemic disease and death known as nephrogenic systemic fibrosis (NSF). NSF is a complication of NMR diagnostics in renal impaired patients, where gadolinium (GAD), a heavy metal, is used as a contrast agent, but in some cases appears to deposit in skin. Although the mechanism for development of skin fibrosis and subsequent systemic disease is not yet completely understood, we have developed a model that has allowed elucidation of the probable pathway to skin fibrosis (Bhagavathula, N., M. K. Dame, M. DaSilva, W. Jenkins, M. N. Aslam, P. Perone and J. Varani (2010)). “Fibroblast response to gadolinium: role for platelet-derived growth factor receptor.” Invest Radiol 45(12): 769-777). This disease is characterized as a hyperproliferative disease, and in our model it was shown that PDGF produced by resident skin fibroblasts are stimulated by GAD to increase their production of PDGF which acts to induce proliferation and the increased production of MMPs, regulators of ECM breakdown and thus turnover, including the major MMP, MMP-1. At the same time tissue inhibitors of MMPs (TIMPs) are also affected by exposure to GAD. […] It appears that local fibroblasts then respond to this increased TGF-beta by increasing their production of ECM, including predominantly collagen type 1.
(§2) We examined the role of CCN3 and CCNp in fibroproliferative/fibrotic responses in human dermal fibroblasts exposed to Omniscan, one of the gadolinium-based contrast agents associated with development of nephrogenic systemic fibrosis. These studies were carried out as we have previously described (Riser, B. L., N. Bhagavathula, P. Perone, K. Garchow, Y. Xu, G. J. Fisher, F. Najmabadi, D. Attili and J. Varani (2012)). “Gadolinium-induced fibrosis is counter-regulated by CCN3 in human dermal fibroblasts: a model for potential treatment of nephrogenic systemic fibrosis.” J Cell Commun Signal 6(2): 97-105.). In our studies, human dermal fibroblasts were exposed to Omniscan; or to PDGF and TGF-β1 as controls. Cellular proliferation was assessed along with MMP-1 (by ELISA and gelatin zymography), TIMP-1 (by ELISA) and COL1 (by ELISA) in the absence and presence of CCN3 and CCNp. CCN3 and CCNp38 was added to cells at 10 nM concentration and at the same time as PDGF. In parallel, CCN3 production was assessed in control and Omniscan-treated cells. In most case the results shown (each bar) are the mean of 3-5 separate experiments, using fibroblasts from different donors. CCN3 was produced in our laboratory from the human embryonic kidney cell line (HEK-293) transfected with the complete human CCN3 gene, and producing an approximate 55 kDa, full-length CCN3 product. A second source of CCN3 was obtained from Pepro Tech Corporation (Rocky Hill, NJ) and is produced in a prokaryote cell line.
(§3) Next we created and tested for efficacy, additional CCNp including those with the cysteines intact (native sequence) from CCNp37 and CCNp38 and those that were modified by either shortening the peptide by 1 or 2 amino acids or lengthening by one amino acid. These agents were added to human skin fibroblasts in increasing concentrations from 1 nM to 100 nM and compared to the equal concentration of CCN3 (SEQ. ID. NO: 67). They were added just prior to the addition of either TGF-beta or PDGF, depending on the experiment.

Another data set deals with human skin fibroblasts. In words: human skin fibroblast proliferation.
Description: as §1, §2, §3

In the next data set the test system is TIMP-1. The experiment in a line: TIMP-1 production by human skin fibroblasts.
Description: as §1, §2
Next we created and tested for efficacy, additional CCNp including those with the cysteines intact (native sequence) from CCNp37 and CCNp38 and those that were modified by either shortening the peptide by 1 or 2 amino acids or lengthening by one amino acid. […]

The subject of a further data set is pro-collagen type 1. In words: pro-collagen type 1 production by human skin fibroblasts. The text has this: To test this we used a cell culture model of skin healing/scarring, which employed the use of primary human skin fibroblasts derived from foreskins collected post circumcision. These have been used extensively in the past to grown in culture and treated with agents that are known to drive wound healing and or scarring. We were also interested in a rare form of skin fibrosis/scarring that can lead to systemic disease and death known as nephrogenic systemic fibrosis (NSF). NSF is a complication of NMR diagnostics in renal impaired patients, where gadolinium (GAD), a heavy metal, is used as a contrast agent, but in some cases appears to deposit in skin. Although the mechanism for development of skin fibrosis and subsequent systemic disease is not yet completely understood, we have developed a model that has allowed elucidation of the probable pathway to skin fibrosis (Bhagavathula, N., M. K. Dame, M. DaSilva, W. Jenkins, M. N. Aslam, P. Perone and J. Varani (2010)). “Fibroblast response to gadolinium: role for platelet-derived growth factor receptor.” Invest Radiol 45(12): 769-777). This disease is characterized as a hyperproliferative disease, and in our model it was shown that PDGF produced by resident skin fibroblasts are stimulated by GAD to increase their production of PDGF which acts to induce proliferation and the increased production of MMPs, regulators of ECM breakdown and thus turnover, including the major MMP, MMP-1. At the same time tissue inhibitors of MMPs (TIMPs) are also affected by exposure to GAD. […]
We examined the role of CCN3 and CCNp in fibroproliferative/fibrotic responses in human dermal fibroblasts exposed to Omniscan, one of the gadolinium-based contrast agents associated with development of nephrogenic systemic fibrosis. […] Cellular proliferation was assessed along with MMP-1 (by ELISA and gelatin zymography), TIMP-1 (by ELISA) and COL1 (by ELISA) in the absence and presence of CCN3 and CCNp. […] In parallel, CCN3 production was assessed in control and Omniscan-treated cells. […]

Entries after “also recorded” stand apart in the source; their conditions may differ. Where a SMILES comes first, the peptide text is derived from it.

Turning to `CC(C)[C@H](NC(=O)CNC(=O)[C@H](CO)NC(=O)[C@@H](N)Cc1ccccc1)C(=O)N[C@@H](CO)C(=O)N[C@@H](CO)C(=O)N[C@@H](CC(=O)O)C(=O)NCC(=O)N[C@@H](CCCNC(=N)N)C(=O)N[C@@H](CO)C(=O)N[C@@H](CO)C(=O)N[C@H](C(=O)N1CCC[C@H]1C(=O)N[C@@H](Cc1c[nH]cn1)C(=O)O)[C@@H](C)O` [CCNp37] (H-FSGVSSDGRSSTPH-OH), the “inhibition of TGF-β-stimulated collagen promoter activity” value is listed as “able to produce some activity” in the data set on collagen type I promoter (added 24-hours prior to TGF-β); “also present (although to a lower level)” in the data set with collagen type I promoter (added 24-hours prior to TGF-β, listed as Peptide 37); “most effective” with collagen type I promoter (added just prior to TGF-β); “ability to totally block TGF-β-stimulated collagen promoter activity” in the data set on collagen type I promoter (added just prior to TGF-β, listed as Peptide 37); “reduce collagen promoter stimulation by TGF-β; also recorded: inhibition of TGF-beta stimulated collagen promoter activity; also recorded: more potent than CCNp38” in the data set with collagen type I promoter (peptide screen, FIG. 8). The “reduction in growth and/or viability (inhibition of cell growth)” value in data set [1] was 15-20%.

Consider `CC[C@H](C)[C@H](NC(=O)CNC(=O)[C@@H](NC(=O)[C@H](CCC(N)=O)NC(=O)[C@H](CC(N)=O)NC(=O)[C@H](CC(N)=O)NC(=O)[C@@H]1CCCN1C(=O)[C@H](CC(=O)O)NC(=O)[C@H](C)NC(=O)[C@H](CO)NC(=O)[C@H](CCCNC(=N)N)NC(=O)[C@H](CC(=O)O)NC(=O)[C@@H](N)CO)[C@@H](C)O)C(=O)N[C@@H](CO)C(=O)O` [CCNp38] (H-SDRSADPNNQTGIS-OH), for which the “inhibition of TGF-β-stimulated collagen promoter activity” value with collagen type I promoter (500 ng/mL) is “able to inhibit collagen promoter activity”; with collagen type I promoter (peptide screen, FIG. 8), “reduce collagen promoter stimulation by TGF-β”. The “reduction in growth and/or viability (inhibition of cell growth)” value in data set [1] was “approximately 40%”.

“CCNp37-15: Human or mouse analog with native cysteines replaced with serines and without PH on C-terminal end, SEQ. ID. No. 55 (FSGVSSDGRSST)”: the “block of PDGF stimulated MMP-1 production, comparison of modifications” value in the data set on MMP-1 (1 nM to 100 nM, FIGS. 25-27) is given as “less effective”.

In the case of “CCNp38-3: Human analog CCNp38 with native cysteines replaced with serines, SEQ. ID. No. 56 (SDRSADPSNQTGIS)”, the “block of PDGF-stimulated fibroblast proliferation” value with human skin fibroblasts (PDGF, 10 nM, FIG. 15) was “equally well; also recorded: this stimulation is blocked”. Also, the “effect on baseline cell growth” value in the data set with human skin fibroblasts (TGF-beta (does not stimulate proliferation), FIG. 16) is “neither CCN3 (SEQ. ID. No. 67) nor CCNp38-3 (Seq. ID. No. 56) has an effect on baseline cell growth”. Moreover, the “reduction in PDGF stimulated MMP-1 production” value with MMP-1 is “about 60%”. In addition, the “block of PDGF-induced increase in MMP-1 activity” value in the data set on MMP-1 (PDGF, 10 nM, FIG. 17) is “works better than CCN3 protein; also recorded: works as well or better than CCN3 protein”. Besides, the “effect on MMP-1 with TGF-beta” value in the data set with MMP-1 (TGF-beta (no stimulating effect), FIG. 18) is “no effect”. Also, the “block of PDGF-induced increase in TIMP-1 production” value in the data set with TIMP-1 (PDGF, 10 nM, FIG. 19) is “neither CCNp38-3 (Seq. ID. No. 56) nor CCN3 (SEQ. ID. No. 67) is able to block or reduce the increase in TIMP-1 production”. Besides, the “effect on TIMP-1 production with TGF-beta” value in the data set on TIMP-1 (TGF-beta (fails to stimulate), FIG. 20) was “neither CCNp38-3 nor CCN3 have an effect; also recorded: neither CCNp38-3 or CCN3 have an effect”. Moreover, the “reduction of TGF-beta-stimulated pro-collagen type 1 production” value in the data set on pro-collagen type 1 (1-100 nM, FIGS. 31-33) is given as “as effective as CCN3”. Besides, the “block of TGF-beta-induced increase in pro-collagen production” value in the data set on pro-collagen type 1 (TGF-beta, 10 nM, FIG. 21) is recorded as “completely block the increase”.

As to “CCNp38-4: Human native CCNp38, SEQ. ID. No. 50 (CDRSADPSNQTGIC; listed as Homo sapiens)”, the “inhibition of PDGF-stimulated proliferation, comparison of modifications” value with human skin fibroblasts (1 nM to 100 nM, FIGS. 22-24) was “inhibited proliferation stimulated by PDGF, but was not as effective as the substituted form”. For the same compound, the “reduction in PDGF stimulated MMP-1 production” value with MMP-1 was “about 60%”.
